Results reported in ChEMBL document CHEMBL3758163, “Extended structure-activity study of thienopyrimidine-based EGFR inhibitors with evaluation of drug-like properties” (Eur J Med Chem, 2016).
pIC50: −log10 of the molar value. ≈ marks a conversion by molar mass, not a printed value.

Legend:
[1] = target: T1, Ephrin type-A receptor 1 (Homo sapiens) (UniProt P21709); experiment: Inhibition of EPHA1 (unknown origin) at 500 nM
T1 sequence (whole entry): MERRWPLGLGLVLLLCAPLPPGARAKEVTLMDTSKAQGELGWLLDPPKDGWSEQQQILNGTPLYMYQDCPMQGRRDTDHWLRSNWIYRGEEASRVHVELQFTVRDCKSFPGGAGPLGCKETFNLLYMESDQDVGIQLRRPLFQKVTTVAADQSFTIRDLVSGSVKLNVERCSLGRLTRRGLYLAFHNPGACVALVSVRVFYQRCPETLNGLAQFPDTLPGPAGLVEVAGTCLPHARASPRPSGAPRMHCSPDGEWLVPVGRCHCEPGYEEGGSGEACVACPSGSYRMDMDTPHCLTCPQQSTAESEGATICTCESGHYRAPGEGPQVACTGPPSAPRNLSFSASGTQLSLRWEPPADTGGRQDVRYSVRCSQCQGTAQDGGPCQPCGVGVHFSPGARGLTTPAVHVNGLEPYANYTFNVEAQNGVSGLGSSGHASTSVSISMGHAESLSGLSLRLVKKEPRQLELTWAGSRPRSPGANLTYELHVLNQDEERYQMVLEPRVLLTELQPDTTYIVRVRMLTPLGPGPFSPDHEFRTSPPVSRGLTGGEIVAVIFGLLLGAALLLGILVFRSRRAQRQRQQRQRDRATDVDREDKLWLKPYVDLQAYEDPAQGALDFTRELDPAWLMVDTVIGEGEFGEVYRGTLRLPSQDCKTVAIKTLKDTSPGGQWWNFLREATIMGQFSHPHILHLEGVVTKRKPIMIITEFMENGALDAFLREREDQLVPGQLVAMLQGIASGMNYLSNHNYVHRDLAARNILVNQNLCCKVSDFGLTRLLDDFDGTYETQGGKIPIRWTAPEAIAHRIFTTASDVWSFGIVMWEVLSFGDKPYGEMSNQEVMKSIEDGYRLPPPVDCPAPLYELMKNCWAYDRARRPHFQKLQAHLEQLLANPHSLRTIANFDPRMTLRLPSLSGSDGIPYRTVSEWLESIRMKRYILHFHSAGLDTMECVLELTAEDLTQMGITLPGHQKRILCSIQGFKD

[2] = target: T2, Inhibitor of nuclear factor kappa-B kinase subunit beta (Homo sapiens) (UniProt O14920); experiment: Inhibition of IKBKB (unknown origin) at 500 nM
T2 sequence (whole entry): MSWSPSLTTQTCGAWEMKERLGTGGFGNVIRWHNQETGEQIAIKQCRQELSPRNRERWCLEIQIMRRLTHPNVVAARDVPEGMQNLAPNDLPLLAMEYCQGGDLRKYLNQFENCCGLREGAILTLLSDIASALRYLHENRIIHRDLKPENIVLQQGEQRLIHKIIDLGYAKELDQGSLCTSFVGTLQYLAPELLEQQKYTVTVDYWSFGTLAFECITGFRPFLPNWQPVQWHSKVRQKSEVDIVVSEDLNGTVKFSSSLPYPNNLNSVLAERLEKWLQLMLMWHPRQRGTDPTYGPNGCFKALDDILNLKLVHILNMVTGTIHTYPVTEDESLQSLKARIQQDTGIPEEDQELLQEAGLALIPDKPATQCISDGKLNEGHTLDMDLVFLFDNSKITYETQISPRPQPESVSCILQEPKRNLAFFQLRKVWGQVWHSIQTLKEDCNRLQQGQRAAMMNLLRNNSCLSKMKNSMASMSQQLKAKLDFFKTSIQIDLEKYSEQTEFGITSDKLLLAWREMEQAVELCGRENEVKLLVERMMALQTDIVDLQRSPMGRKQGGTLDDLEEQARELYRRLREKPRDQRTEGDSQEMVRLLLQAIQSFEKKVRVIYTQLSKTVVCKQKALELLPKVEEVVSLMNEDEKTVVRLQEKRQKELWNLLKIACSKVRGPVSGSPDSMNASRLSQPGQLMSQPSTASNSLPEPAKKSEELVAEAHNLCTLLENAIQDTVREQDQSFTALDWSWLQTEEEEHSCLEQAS

[3] = target: Tyrosine-protein kinase Lyn (Homo sapiens) (UniProt P07948); experiment: Inhibition of LYN A (unknown origin) at 500 nM
[4] = Aqueous solubility of compound in 0.01 M PBS buffer at pH 7.4 after 2 hrs by turbidimetric assay; format: physicochemical
in vitro = details: human, Caco-2
Description: Efflux ratio of permeability from basolateral to apical side over apical to basolateral side in human Caco2 cells at 10 uM by LC-MS/MS analysis

[5] = Antiproliferative activity against human U937 cells after 72 hrs by CellTiter blue assay; format: functional, cell-based; details: U-937, 72 h
[6] = Antiproliferative activity against human PC9 cells after 96 hrs by Sytox green marker based fluorescence analysis; format: functional, cell-based; details: PC-9, 96 h
[7] = Antiproliferative activity against human BT474 cells after 72 hrs by CellTiter blue assay; format: functional, cell-based; details: BT-474, 72 h
[8] = Antiproliferative activity against human SKBR3 cells after 72 hrs by CellTiter blue assay; format: functional, cell-based; details: SK-BR-3, 72 h
[9] = Antiproliferative activity against human OVCAR3 cells after 72 hrs by CellTiter-Glo assay; format: functional, cell-based; details: OVCAR-3, 72 h
[10] = Antiproliferative activity against human Calu3 cells after 72 hrs by CellTiter blue assay; format: functional, cell-based; details: Calu-3, 72 h
Danio rerio [11] = species: Danio rerio; experiment: Toxicity in zebrafish embryo assessed as effect on morphology upto 25 uM; format: organism-based; details: in vivo
MRC5 = experiment: Antiproliferative activity against human MRC5 cells after 72 hrs by CellTiter-Glo assay; format: cell-based; details: MRC5, 72 h
Danio rerio [12] = species: Danio rerio; experiment: Toxicity in zebrafish embryo assessed as kinked tails at 50 and 100 uM; format: organism-based; details: in vivo
[13] = Toxicity in zebrafish embryo assessed as morphological defects for 3.5 days; format: organism-based, Danio rerio
SW480 = experiment: Antiproliferative activity against human SW480 cells after 72 hrs by CellTiter-Glo assay; format: functional, cell-based; details: SW480, 72 h
FaDu = experiment: Antiproliferative activity against human FADU cells; format: functional, cell-based
H9 = experiment: Antiproliferative activity against human H9 cells after 72 hrs by CellTiter-Glo assay; format: functional, cell-based; details: H9, 72 h
[14] = Antiproliferative activity against human Hs578T cells after 72 hrs by CellTiter-Glo assay; format: functional, cell-based; details: Hs-578T
[15] = Toxicity in zebrafish embryo assessed as survival for 3.5 days; format: organism-based, Danio rerio; details: in vivo

Tyrosine-protein kinase Lyn (Homo sapiens), sequence (P07948 2-512 limits assumed): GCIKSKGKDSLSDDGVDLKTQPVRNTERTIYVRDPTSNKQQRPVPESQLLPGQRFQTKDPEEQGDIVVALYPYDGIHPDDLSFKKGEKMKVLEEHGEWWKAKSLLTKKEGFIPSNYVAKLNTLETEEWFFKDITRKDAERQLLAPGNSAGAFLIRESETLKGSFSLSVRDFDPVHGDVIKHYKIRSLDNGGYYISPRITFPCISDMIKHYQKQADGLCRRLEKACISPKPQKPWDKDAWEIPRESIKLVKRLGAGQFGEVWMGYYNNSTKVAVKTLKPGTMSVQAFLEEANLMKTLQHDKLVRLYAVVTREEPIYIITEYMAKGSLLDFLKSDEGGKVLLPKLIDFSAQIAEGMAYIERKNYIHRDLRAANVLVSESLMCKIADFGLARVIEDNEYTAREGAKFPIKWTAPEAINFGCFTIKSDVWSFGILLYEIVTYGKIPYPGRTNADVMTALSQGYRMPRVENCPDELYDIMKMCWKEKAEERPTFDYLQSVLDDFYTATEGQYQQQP

Structure (SMILES)	inhibition [1]	inhibition [2]	inhibition [3]	solubility kinetic at 2 h [4]	other results
C#Cc1cccc(Nc2ncnc3cc(OCCOC)c(OCCOC)cc23)c1 [ERLOTINIB]	3%	-5%	68%	20 µM (≈ 7.87 µg/mL)	pIC50 [5]: 5.00; pIC50 [6]: 7.15; pIC50 [7]: 4.89; pIC50 [8]: < 4.00; pIC50 [9]: 5.34; pIC50 [10]: 5.33; Activity (Danio rerio [11]): Non-toxic; pIC50 (MRC5): 5.24; Activity (Danio rerio [12]): Toxic; EC50 at 3.5 days [13]: 60 µM; pIC50 (SW480): < 4.00; pIC50 (FaDu): 4.74; pIC50 (H9): 5.89; pIC50 [14]: < 4.00
COc1cc(CO)ccc1-c1cc2c(N[C@H](CO)c3ccccc3)ncnc2s1	1%	1%	40%		pIC50 [5]: 4.74; pIC50 [6]: 7.05; LC50 at 84 h [15]: > 100 µM; pIC50 [7]: 4.96; pIC50 [8]: 4.77; pIC50 [9]: 5.01; pIC50 [10]: 5.38; Activity (Danio rerio [11]): Non-toxic; pIC50 (MRC5): 4.43; Activity (Danio rerio [12]): Toxic; EC50 at 3.5 days [13]: 49 µM; pIC50 (SW480): 4.72; pIC50 (FaDu): 4.37; pIC50 (H9): 4.92; pIC50 [14]: 4.37
C#Cc1cccc(Nc2ncnc3sc(-c4ccc(CO)cc4OC)cc23)c1	2%	-4%	13%		
COc1cc(C(N)=O)ccc1-c1cc2c(N[C@H](CO)c3ccccc3)ncnc2s1	12%	3%	47%		LC50 at 84 h [15]: > 100 µM; Activity (Danio rerio [11]): Non-toxic; Activity (Danio rerio [12]): Toxic; EC50 at 3.5 days [13]: 46 µM
COc1cc(CO)ccc1-c1cc2c(Nc3ccc(F)c(Cl)c3)ncnc2s1	12%	1%	13%	2 µM (≈ 0.832 µg/mL)	

The next lines start with results.

inhibition [1]	inhibition [2]	inhibition [3]	solubility kinetic at 2 h [4]	Structure (SMILES)	other results
15%	3%	31%	65 µM (≈ 30 µg/mL)	CN(C)CCNC(=O)c1ccc(-c2cc3c(N[C@H](CO)c4ccccc4)ncnc3s2)cc1	efflux ratio at 10 µM (in vitro): > 20
11%	6%	16%		C[C@@H](Nc1ncnc2sc(-c3ccccc3C(N)=O)cc12)c1ccccc1	
7%	3%	57%	> 100 µM	COc1ccc(C(=O)NCCN(C)C)cc1-c1cc2c(N[C@H](C)c3ccccc3)ncnc2s1	efflux ratio at 10 µM (in vitro): 63
1%	10%	61%		COc1cc(CO)ccc1-c1cc2c(N[C@H](C)c3ccccc3)ncnc2s1	
11%	7%	38%		C[C@@H](Nc1ncnc2sc(-c3ccc(C(=O)NCCN(C)C)cc3)cc12)c1ccccc1	
13%	4%	24%		COc1cc(CO)ccc1-c1cc2c(Nc3ccccc3)ncnc2s1	
